Results: publication PMC9916762, “Impact of Hydrophobic Chains in Five-Coordinate Glucoconjugate Pt(II) Anticancer Agents” (International Journal of Molecular Sciences, 2023)

Key:
[1] = biological target: T1, hen egg white lysozyme (HEWL) (Gallus gallus, UniProt P00698); assay: X-ray structure of adducts with HEWL; type: binding
T1 construct: model protein hen egg white lysozyme (HEWL); purchased Merck KGaA (Darmstadt, Germany); host or cells: hen egg white (natural source, by the protein's name)
Description: To obtain information on the reactivity of 1-Me,Me with proteins, the X-ray structure of the adducts that the Pt compound forms with HEWL was solved.
The structures were obtained using crystals grown in 20% ethylene glycol, 0.1 M sodium acetate buffer at pH 4.0, and 0.6 M sodium nitrate (Structure A, Figure 8A) and in 2.0 M sodium formate and 0.1 M Hepes at pH 7.5 (Structure B, Figure 8B), refined at 1.25 and 1.33 Å resolutions, respectively (Table S2).
HEWL crystals were grown using the hanging drop vapour diffusion method and the following reservoirs: • (a) 20% ethylene glycol, 0.10 M sodium acetate at pH 4.0, and 0.60 M sodium nitrate • (b) 2.0 M sodium formate and 0.1 M HEPES at pH 7.5.
The crystals of the protein adduct with 1-Me,Me were obtained by the soaking procedure. The HEWL crystals were soaked in a solution consisting of 83% reservoir, 17% DMSO, and 3.3 mM 1-Me,Me.
The structures of the Pt–HEWL adducts were solved by the molecular replacement method, using the HEWL coordinates deposited in the PDB under the accession code 193L [40] as a model. Refinements were carried out with a CCP4 REFMAC5 [46], and the model building, adjustments, and inspection of the electron density maps was manually carried out using WinCoot.
The Pt binding sites were unambiguously identified by comparing 2Fo–Fc, residual Fo–Fc, and anomalous difference electron density maps. […]

[2] = In-solution stability in aqueous solvents (1H NMR, UV-vis); type: physicochemical
Text: Attempts to evaluate their stability in aqueous solutions were complicated due the poor solubility of the complexes in water. Only for 1-Me,Me was it possible to prepare a solution in the mixed solvent D2O:DMSO-d6 10:1. […] To further study the stability of 1-Me,Me in aqueous solvents, UV–vis absorption spectra over time were collected under the two experimental conditions (20% ethylene glycol, 0.1 M sodium acetate buffer at pH 4.0 and 0.6 M sodium nitrate and 2.0 M sodium formate, 0.1 M Hepes buffer at pH 7.5), used to obtain crystals of the adducts with the model protein hen egg white lysozyme (HEWL). HEWL has been used as a model system to study the interaction with proteins of several metallodrugs, including cisplatin [31, 32, 33], oxaliplatin [34, 35], and carboplatin [31, 32]. […] Over time, a red shift of the λmax from 275 to 278 nm and of the peak at 313 nm, which shifted up to 317 nm, was observed. […] Such results convinced us that five-coordinate compounds are the species administered to cells if DMSO stock solutions are immediately diluted in an aqueous medium.
The stability of the 1-R,R’ complexes in DMSO was studied by dissolving 5 mg of each complex in 250 μL of DMSO-d6 and then diluting 200 μL of this solution with 300 μL of DMSO-d6. […] The ^1H-NMR spectra of the resulting solutions were recorded over time. […]

[3] = test system: immortalized murine fibroblasts (BALB/c-3T3); conditions: read-out: IC50 BALB-c/3T3; 48 h incubation, MTT
Description: To evaluate their biological activity, the effects of the four complexes on cell viability were evaluated in eukaryotic cell models. For this purpose, experiments were performed on two cancer cell lines, i.e., human epidermoid carcinoma cells (A431) and murine fibroblast BALB/c-3T3 transformed with the SV40 virus (SVT2), and on two non-cancer cell lines, i.e., immortalized human keratinocytes (HaCaT) and immortalized murine fibroblasts (BALB/c-3T3). Cells were incubated with increasing concentrations of 1,Me-Me, 1,Oct-Me, 1,Me-Oct, and 1,Oct-Oct (from 0.1 to 50 μM). After 48 h of incubation, cytotoxicity was determined by MTT assay and cell survival was expressed as the percentage of viable cells in the presence of each complex compared with that of the untreated cells (Figure S19).
The immortalized human keratinocytes (HaCaT) were from Innoprot. Human The A431 epidermoid carcinoma, murine BALB/c-3T3, and SVT2 fibroblasts were from ATCC. Cells were cultured in Dulbecco’s modified Eagle’s medium (DMEM) (Sigma-Aldrich, St. Louis, MO, USA), supplemented with 10% foetal bovine serum (HyClone), 2 mM L-glutamine, and antibiotics, all from Sigma-Aldrich, under a 5% CO2-humidified atmosphere at 37 °C. To test the effects of the complexes on cell viability, cells were seeded at a density of 2.5 × 10^3 cells per well in 96-well plates. After 24 h, cells were incubated with increasing concentrations (from 0.1 to 50 μM) of the four complexes. After 48 h, cell viability was assessed by the MTT assay, as previously reported in [43]. Cell viability was expressed as the percentage of viable cells in the presence of the Pt complexes compared to the controls, represented by untreated cells and cells supplemented with identical volumes of DMSO. Each sample was tested in three independent analyses, each carried out in triplicate.

Platinum(1+), (2,9-dimethyl-1,10-phenanthroline- N1,N10)(η2-ethene)methyl[1,3-dihydro-1,3-dimethyl-4-[1-[2,3,4,6-tetrakis-O-(acetyl)-β-D-glucopyranosyl]-1H-1,2,3-triazol-4-yl]-2H-imidazol-2-ylidene], 1,1,1-trifluoromethanesulfonate [1-Me,Me]
Pt binding sites on HEWL ([1]; Structure A: 20% ethylene glycol, 0.1 M sodium acetate pH 4.0, 0.6 M sodium nitrate): two Pt binding sites were observed | Pt binding sites on HEWL ([1]; Structure B: 2.0 M sodium formate, 0.1 M Hepes pH 7.5): a single Pt binding site was observed | stability, UV-vis spectra over time ([2]; 50 μM, 2.0 M sodium formate, 0.1 M Hepes buffer pH 7.5): stable over time | stability, NMR spectra over time ([2]; D2O:DMSO-d6 10:1, after 24 h): no appreciable changes | IC50 [3]: 26 ± 1 µM
